The text below walks through data of patent US20240217932A1, “PYRIDIUM ESTERS” (The Procter & Gamble Company, priority 2022, published 2024).

One data set concerns staphylococcus aureus. The experiment in a line: Surface Antimicrobial Kill Testing Method, activity normalized to triclosan internal standard (Gram positive). The data set is classed as cell-based. On the procedure:
(§1) Inoculum is prepared by streaking microorganism onto a Tryptic Soy Agar (TSA) plate and incubating for 24 h at 33° C. Plated bacteria is resuspended in saline until the transmittance percentage falls within the accepted range for ˜10^8 cfu/mL. For K. pneumonia (Kp) and P. aeruginosa (Pa), this is 31.00-33.00% T. For S. aureus (Sa) this is 23.00-25.00% T. A 10× concentration is made by spinning down the prepared inoculum, removing the supernatant saline from the bacterial pellet, then resuspending the pellet in 1/10th of the original volume of saline. The final inoculum is prepared with 5% of “soil” in the form of Fetal Bovine Serum (FBS).
(§2) A 18×18 mm sterile glass coverslip is placed into an appropriate container (e.g. petri dish). 20 μL of prepared inoculum is added to the glass coverslip. Inoculum is then air-dried for 30 minutes in a 36° C. incubator. After drying, 40 μL of test sample is added on top of the dried inoculum. This is incubated at room temperature for the desired contact time. 5 mL of neutralizing media (Modified Letheen Broth+Tween+Lecithin (MLBTL)) is added to the coverslip and shaken on an orbital shaker for 5 minutes to ensure proper neutralization and extraction. Viability is then assessed of the neutralized and extracted sample by traditional/alternative microbiological techniques.
(§3) The normalized antimicrobial activity reported in the performance examples below was generated from detection time data obtained as described in the Surface Antimicrobial Kill Test Method. To account for day-to-day variability an internal standard was tested with each series. The internal standard was a composition of 0.25 wt % Triclosan, Sigma Aldrich (St. Louis, MO, USA; CAS #3380-34-5, 97.0-103.0% (active substance, GC)), 50 wt % DMSO, and 49.75 wt % H2O, with a final solution pH of 7.7. Normalized activity is reported following the equation 1 below.
(§4) Normalized Activity=(αΔDT-βΔDT)/(γΔDT-βΔDT) equation 1.
(§5) where, αΔDT is the average detection time of the antimicrobial compound, and γΔDT is the average detection time of the reference triclosan internal standard, and βΔDT is the average detection time of the background unperturbed bacteria.
(§6) Pyridinium esters of the present disclosure were tested as aqueous solutions in the Surface Antimicrobial Kill Testing Method above. To prepare test solutions pyridinium esters were first dissolved in the appropriate solvent. Second the selected surfactant is added to the mixture. After vortex (1 min, Vortex-2 Genie, vortex speed 8) mixing, the samples were then diluted with ½ portion of reverse osmosis water (RO water, Millipore Direct-Q™, pH 6). The aqueous solution was then vortexed (1 min, Vortex-2 Genie, vortex speed 8), to which the second ½ portion of water is added. The pH of the solution was then adjusted to the target pH using either 1N HCl, Glacial Acetic Acid, or 1N NaOH. The final solution was then vortexed (1 min, Vortex-2 Genic, vortex speed 8). An example batch sheet is provided below in Table 1.
(§7) In Performance Examples 1-4 below, formulations comprising solvent, surfactant, and pyridinium esters according to the present disclosure (e.g., based on hexyl 3-(alkylpyridinium)acrylate halides), are evaluated via microbial surface kill tests according to the Surface Antimicrobial Kill Testing Method provided above. After treatment, microbial growth is referenced and reported to a triclosan sample and unaltered microbes according to the Normalization of Antimicrobial Activity provided above.

A short description of data set [1]: Stability of the isolated solid by 1H NMR. The data set is classed as physicochemical.
For the next data set, the system named is Gram Negative bacteria. The experiment in a line: Surface Antimicrobial Kill Testing Method, activity normalized to triclosan internal standard (Gram negative). The class given is cell-based. The settings on record: water, pH 7. On the procedure: as §1, §2, §3, §4, §5, §6, §7
Setting [2] is: 0.5 wt % compound, 3 wt % DEGBE, 1 wt % EcoSurf EH-9, 95.5 wt % reverse osmosis water, pH 7.

In the case of `CCCCCCOC(=O)/C=C/c1cccnc1` [Synthetic Example 1, hexyl 3-(3-pyridyl)acrylate], in the data set on staphylococcus aureus (setting [2]), the “Gram Positive Referenced Microbial Activity” value is 0.11.

On to `CCCCCCOC(=O)/C=C/c1ccc[n+](C)c1.[I-]` [Synthetic Example 3, hexyl 3-(3-methylpyridinium)acrylate iodide], for which the “Gram Positive Referenced Microbial Activity” value in the data set on staphylococcus aureus (setting [2]) was determined as 0.21. Also, the “Stability of the independent solid by 1H NMR” value (“Stability” below) in data set [1] was “stable for several months”.

As to `CCCCCCOC(=O)/C=C/c1cc[n+](C)cc1.[I-]` [Synthetic Example 4, hexyl 3-(4-methylpyridinium)acrylate iodide], in the data set on staphylococcus aureus (setting [2]), the “Gram Positive Referenced Microbial Activity” value was found to be 1.2. In addition, the “Stability” value in data set [1] is “stable for several months”.

As to `CCCCCCOC(=O)/C=C/c1ccc[n+](CCCCCC)c1.[Br-]` [Synthetic Example 5, hexyl 3-(3-hexylpyridinium)acrylate bromide], the “Gram Positive Referenced Microbial Activity” value is on record as 0.55 in the data set on staphylococcus aureus (0.063 wt % Synthetic Example 5, 1 wt % EcoSurf EH9, 3 wt % DEGBE, water, pH 7); 0.93 in the data set with staphylococcus aureus (0.125 wt % Synthetic Example 5, 1 wt % EcoSurf EH9, 3 wt % DEGBE, water, pH 7); 0.42 in the data set on staphylococcus aureus (0.25 % Synthetic Example 5, 1 wt % Crodasinic LS30, 3 wt % DEGBE, water, pH 7); 1.09 in the data set on staphylococcus aureus (0.25 % Synthetic Example 5, 1 wt % EH6, 3 wt % DEGBE, water, pH 7); 0.54 in the data set with staphylococcus aureus (0.25 % Synthetic Example 5, 1 wt % L24-9, 3 wt % DEGBE, water, pH 7); 0.78 in the data set with staphylococcus aureus (0.25 % Synthetic Example 5, 1 wt % Miranol Ultra, 3 wt % DEGBE, water, pH 7). For the same compound, the “Gram Positive Referenced Microbial Activity” value in the data set with staphylococcus aureus (0.25 % Synthetic Example 5, 1 wt % Plantaren 2000, 3 wt % DEGBE, water, pH 7) was >2.33; in the data set with staphylococcus aureus (0.25 % Synthetic Example 5, 1 wt % SLS, 3 wt % DEGBE, water, pH 7) it was 0.20; with staphylococcus aureus (0.25 % Synthetic Example 5, 1 wt % Tween80, 3 wt % DEGBE, water, pH 7) it was 0.57; in the data set on staphylococcus aureus (0.25 wt % Synthetic Example 5, 1 wt % EcoSurf EH9, 3 wt % DEGBE, water, pH 7), 2.02; in the data set on staphylococcus aureus (0.5 wt % Synthetic Example 5, 1 wt % EcoSurf EH9, 3 wt % DEGBE, water, pH 7 (concentration series)) it was >2.87; in the data set on staphylococcus aureus (setting [2]), >1.42. Also, the “Gram Positive Referenced Microbial Activity” value is on record as >2.58 with staphylococcus aureus (pH 3, 0.5 wt % compound, 1 wt % EcoSurf EH9, 3 wt % DEGBE, 95.5 wt % water); >2.8 in the data set on staphylococcus aureus (pH 7, 0.5 wt % compound, 1 wt % EcoSurf EH9, 3 wt % DEGBE, 95.5 wt % water (pH series)); 2.53 with staphylococcus aureus (pH 9, 0.5 wt % compound, 1 wt % EcoSurf EH9, 3 wt % DEGBE, 95.5 wt % water). Besides, the “pH range of formulations in which antimicrobial efficacy is maintained” value with staphylococcus aureus (formulations of table 16) is listed as 3-9. Moreover, the “Concentration down to which antimicrobial efficacy against staphylococcus aureus is maintained” value with staphylococcus aureus (formulations of table 17) was ≥ 0.063 wt %. Further, the “Stability” value in data set [1] is “stable for several months”. Besides, the “Gram Negative Referenced Microbial Activity” value with Gram Negative bacteria (0.25 % Synthetic Example 5, 1 wt % Crodasinic LS30, 3 wt % DEGBE) is 0.41; in the data set on Gram Negative bacteria (0.25 % Synthetic Example 5, 1 wt % EH6, 3 wt % DEGBE) it was >2.58; in the data set with Gram Negative bacteria (0.25 % Synthetic Example 5, 1 wt % L24-9, 3 wt % DEGBE) it was 1.34; in the data set with Gram Negative bacteria (0.25 % Synthetic Example 5, 1 wt % Miranol Ultra, 3 wt % DEGBE), 1.92; in the data set on Gram Negative bacteria (0.25 % Synthetic Example 5, 1 wt % Plantaren 2000, 3 wt % DEGBE), >2.58; in the data set on Gram Negative bacteria (0.25 % Synthetic Example 5, 1 wt % SLS, 3 wt % DEGBE), 0.08. Also, the “Gram Negative Referenced Microbial Activity” value in the data set on Gram Negative bacteria (0.25 % Synthetic Example 5, 1 wt % Tween80, 3 wt % DEGBE) was determined as 1.37.

Consider `CCCCCCOC(=O)/C=C/c1cc[n+](CCCCCC)cc1.[Br-]` [Synthetic Example 6, hexyl 3-(4-hexylpyridinium)acrylate bromide], for which the “Gram Positive Referenced Microbial Activity” value with staphylococcus aureus (setting [2]) is listed as >1.39. For the same compound, in data set [1], the “Stability” value is “stable for several months”.

Regarding `CCCCCCCC[n+]1cccc(/C=C/C(=O)OCCCCCC)c1.[Br-]` [Synthetic Example 7, hexyl 3-(3-octylpyridinium)acrylate bromide], the “Gram Positive Referenced Microbial Activity” value in the data set on staphylococcus aureus (setting [2]) was >1.42. Further, the “Stability” value in data set [1] is given as “stable for several months”.

In the case of `CCCCCCCC[n+]1ccc(/C=C/C(=O)OCCCCCC)cc1.[Br-]` [Synthetic Example 8, hexyl 3-(4-octylpyridinium)acrylate bromide], the “Gram Positive Referenced Microbial Activity” value in the data set with staphylococcus aureus (setting [2]) is listed as >1.33. Further, the “Stability” value in data set [1] is “stable for several months”.
